Test results published in patent US8173829B2, “Carbamate stereoisomer” (Sunovion Pharmaceuticals Inc., priority 2007, dated 2012).

Tests used:
[1] = molecular target: T1, human recombinant β1 receptors (Homo sapiens, UniProt P08588); experiment: β1 radioligand binding assay; settings: β1 receptor
T1 construct: expressed in transfected cells; host or cells: CHO cells
Protocol: (§1) βi and β2 Radioligand Binding Assays
(§2) The Ki is calculated from the IC50 and the known KD of the radioligand (Cheng and Prusoff's equation).

[2] = molecular target: T2, human recombinant β2 receptors (Homo sapiens, UniProt P07550); experiment: β2 radioligand binding assay
T2 construct: expressed in transfected cells; host or cells: CHO cells
T2 sequence (P07550 whole entry): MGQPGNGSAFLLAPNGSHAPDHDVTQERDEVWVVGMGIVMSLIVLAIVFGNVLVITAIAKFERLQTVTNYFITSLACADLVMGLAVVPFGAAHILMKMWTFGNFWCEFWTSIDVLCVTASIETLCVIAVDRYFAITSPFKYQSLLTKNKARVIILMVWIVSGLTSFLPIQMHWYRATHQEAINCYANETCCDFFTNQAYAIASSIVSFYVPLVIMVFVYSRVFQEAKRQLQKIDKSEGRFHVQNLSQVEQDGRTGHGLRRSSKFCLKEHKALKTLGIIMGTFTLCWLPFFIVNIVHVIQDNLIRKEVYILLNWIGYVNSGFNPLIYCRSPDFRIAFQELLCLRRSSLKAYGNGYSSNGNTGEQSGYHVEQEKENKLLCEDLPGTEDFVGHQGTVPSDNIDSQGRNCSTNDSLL
Protocol: as §1, §2

[3] = molecular target: T3, human recombinant β2 receptors expressed in CHO cells (Homo sapiens, UniProt P07550); experiment: Intrinsic activity assessment (β2), cAMP production; assay type: cell-based; settings: % response relative to a procaterol-induced cAMP increase
T3 construct: expressed in transfected cells; host or cells: CHO cells
T3 sequence (P07550 whole entry): as above
Protocol: Intrinsic Activity Assessment (β2)
The intrinsic activity of a test compound is assessed by evaluating its ability to increase cAMP production from human recombinant β2 receptors expressed in CHO cells. Data are expressed as % response relative to a procaterol-induced cAMP increase.

[4] = molecular target: T4, adrenergic β1 receptors (Cavia porcellus, UniProt H0W3H1); experiment: β1 adrenergic activity (functional), positive chronotropic effect in isolated right atria; design: species or system Dunkin Hartley Guinea pigs; settings: β1 functional assay, at a concentration of 30 μM
T4 construct: from tissue; host or cells: isolated right atria of Dunkin Hartley guinea pigs
T4 sequence (H0W3H1 1-470): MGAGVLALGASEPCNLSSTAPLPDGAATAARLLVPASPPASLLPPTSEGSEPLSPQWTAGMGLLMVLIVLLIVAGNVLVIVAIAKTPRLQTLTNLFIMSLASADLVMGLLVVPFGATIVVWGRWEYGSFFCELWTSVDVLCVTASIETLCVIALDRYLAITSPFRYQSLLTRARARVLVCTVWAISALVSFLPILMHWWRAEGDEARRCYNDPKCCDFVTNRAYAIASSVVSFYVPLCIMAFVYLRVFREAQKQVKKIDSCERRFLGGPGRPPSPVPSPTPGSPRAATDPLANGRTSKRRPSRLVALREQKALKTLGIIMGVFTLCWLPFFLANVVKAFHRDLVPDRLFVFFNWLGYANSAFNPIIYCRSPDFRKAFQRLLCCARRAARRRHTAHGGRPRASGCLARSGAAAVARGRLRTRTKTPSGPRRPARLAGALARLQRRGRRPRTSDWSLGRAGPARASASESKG

[5] = molecular target: T5, adrenergic β2 receptors (Cavia porcellus, UniProt Q8K4Z4); experiment: β2 adrenergic activity (functional), relaxation of spontaneous tone of isolated trachea; design: species or system Dunkin Hartley Guinea pigs
T5 construct: from tissue; host or cells: isolated trachea of Dunkin Hartley guinea pigs
T5 sequence (Q8K4Z4 whole entry): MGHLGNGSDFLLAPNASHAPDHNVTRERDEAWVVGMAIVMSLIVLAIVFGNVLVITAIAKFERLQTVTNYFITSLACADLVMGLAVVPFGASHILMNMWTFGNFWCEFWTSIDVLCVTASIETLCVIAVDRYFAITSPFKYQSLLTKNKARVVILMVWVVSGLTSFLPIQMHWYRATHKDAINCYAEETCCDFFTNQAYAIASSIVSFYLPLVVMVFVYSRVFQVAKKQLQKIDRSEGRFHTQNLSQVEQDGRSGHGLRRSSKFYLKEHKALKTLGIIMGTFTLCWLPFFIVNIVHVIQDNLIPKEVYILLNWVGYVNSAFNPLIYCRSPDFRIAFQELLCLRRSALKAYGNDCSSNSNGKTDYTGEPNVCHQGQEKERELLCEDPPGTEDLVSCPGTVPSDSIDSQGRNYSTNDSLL

[6] = Stability in aqueous buffered solutions; assay type: physicochemical
Protocol: Stability in Aqueous Buffered Solutions
Solution Preparations: For each test compound, the following solutions are prepared. • Solution A is prepared from ˜30 mg of the test compound in 150 mL of 0.005 M citrate buffer, pH 5.0 (˜0.2 mg/mL). • Solution B is prepared as follows: approximately 30 mL aliquot of Solution A is transferred to a separated container and the pH of the solution is adjusted to pH 3.0 with 1 N HCl (˜0.2 mL). • Solution C is prepared as follows: approximately 30 mL aliquot of Solution A is transferred to a separated container and the pH of the solution is adjusted to pH ˜8.0 with 1 N NaOH (˜0.2 mL). • Note: Because the volume of 1 N HCl or 1 N NaOH used for adjusting pH was negligible, the concentration of test compound in Solutions A, B and C were the same.
Storage SCHEME • As soon as the above solutions were prepared, aliquots of each solution were transferred into 11 vials, of which 9 vials are stored at −20° C., and one each is stored at 30° C. and 40° C., respectively. • At each interval listed below, two vials are removed from −20° C. storage, and stored at 30° C. and 40° C., respectively. • The corresponding weeks under the storage condition (30° C. or 40° C.) are shown in the table below.
On Week 12, the last vial stored at −20° C. is removed and warmed up to the room temperature, which is the Day 0 Solution.
Sample Analysis: On Week 12, all solutions are assayed by an HPLC method using the Day 0 Solution at pH 5 as a standard solution. The test compounds were assayed by HPLC with UV detection (refer to Table 1 for method conditions).

T1 sequence (P08588 whole entry): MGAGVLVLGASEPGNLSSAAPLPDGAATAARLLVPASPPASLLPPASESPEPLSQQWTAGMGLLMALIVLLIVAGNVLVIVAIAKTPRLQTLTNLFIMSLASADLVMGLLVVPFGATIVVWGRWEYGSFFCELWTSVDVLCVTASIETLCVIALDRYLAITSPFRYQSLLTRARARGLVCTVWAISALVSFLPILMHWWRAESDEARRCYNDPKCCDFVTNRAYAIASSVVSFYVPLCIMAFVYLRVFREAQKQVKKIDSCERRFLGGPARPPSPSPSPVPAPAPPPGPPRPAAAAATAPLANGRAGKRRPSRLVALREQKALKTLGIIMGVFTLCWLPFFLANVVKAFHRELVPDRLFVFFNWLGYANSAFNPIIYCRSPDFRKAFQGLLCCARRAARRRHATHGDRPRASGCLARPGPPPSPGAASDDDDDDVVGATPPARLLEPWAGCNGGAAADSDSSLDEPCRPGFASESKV

## COC(=O)Nc1cc([C@H](O)CN[C@H](C)Cc2ccc(O)cc2)ccc1O [Example 1, Carbamic acid, [2-hydroxy-5-[(1S)-1-hydroxy-2-[[(1R)-2-(4-hydroxyphenyl)-1-methylethyl]amino]ethyl]-phenyl]-, methyl ester]
[1]; at a concentration of 20 μM, read-out: inhibition of specific binding
  inhibition at 20 µM: 44%
[1]; displacement of [125I]-cyanopidolol, CHO cells
  Ki: > 10000 nM
[2]; ratio of Ki β1 to Ki β2
  β1/β2 binding ratio: > 10
[2]; β2 receptor, displacement of [3H]-CGP-12177, CHO cells
  Ki: 990 nM
[3]
  Emax: 79%
[4]
  increase in heart rate: 20%
[5]; ratio of EC50 β1 to EC50 β2
  β1/β2 functional ratio: > 484
[5]; β2, isolated trachea, guinea pig
  EC50: 62 nM
[6]; pH 3.0, 30° C., 0 wk
  % of Initial Concentration (0.19847 mg/mL) in pH 5.0: 98.31%
[6]; pH 3.0, 30° C., 1 wk
  % of Initial Concentration (0.19847 mg/mL) in pH 5.0: 99.95%
[6]; pH 3.0, 30° C., 2 wk
  % of Initial Concentration (0.19847 mg/mL) in pH 5.0: 99.12%
[6]; pH 3.0, 30° C., 4 wk
  % of Initial Concentration (0.19847 mg/mL) in pH 5.0: 100.91%
[6]; pH 3.0, 30° C., 8 wk
  % of Initial Concentration (0.19847 mg/mL) in pH 5.0: 101.16%
[6]; pH 3.0, 30° C., 12 wk
  % of Initial Concentration (0.19847 mg/mL) in pH 5.0: 101.54%
[6]; pH 3.0, 40° C., 0 wk
  % of Initial Concentration (0.19847 mg/mL) in pH 5.0: 98.31%
[6]; pH 3.0, 40° C., 1 wk
  % of Initial Concentration (0.19847 mg/mL) in pH 5.0: 98.87%
[6]; pH 3.0, 40° C., 2 wk
  % of Initial Concentration (0.19847 mg/mL) in pH 5.0: 100.33%
[6]; pH 3.0, 40° C., 4 wk
  % of Initial Concentration (0.19847 mg/mL) in pH 5.0: 105.71%
[6]; pH 3.0, 40° C., 8 wk
  % of Initial Concentration (0.19847 mg/mL) in pH 5.0: 106.72%
[6]; pH 3.0, 40° C., 12 wk
  % of Initial Concentration (0.19847 mg/mL) in pH 5.0: 106.51%
[6]; pH 3 or 5, stored at 30° C.
  time for which found to be very stable: at least 12 weeks
[6]; pH 5.0, 30° C., 0 wk
  % of Initial Concentration (0.19847 mg/mL) in pH 5.0: 100.20%
[6]; pH 5.0, 30° C., 1 wk
  % of Initial Concentration (0.19847 mg/mL) in pH 5.0: 99.68%
[6]; pH 5.0, 30° C., 2 wk
  % of Initial Concentration (0.19847 mg/mL) in pH 5.0: 101.08%
[6]; pH 5.0, 30° C., 4 wk
  % of Initial Concentration (0.19847 mg/mL) in pH 5.0: 101.59%
[6]; pH 5.0, 30° C., 8 wk
  % of Initial Concentration (0.19847 mg/mL) in pH 5.0: 105.28%
[6]; pH 5.0, 30° C., 12 wk
  % of Initial Concentration (0.19847 mg/mL) in pH 5.0: 106.61%
[6]; pH 5.0, 40° C., 0 wk
  % of Initial Concentration (0.19847 mg/mL) in pH 5.0: 100.20%
[6]; pH 5.0, 40° C., 1 wk
  % of Initial Concentration (0.19847 mg/mL) in pH 5.0: 100.40%
[6]; pH 5.0, 40° C., 2 wk
  % of Initial Concentration (0.19847 mg/mL) in pH 5.0: 101.07%
[6]; pH 5.0, 40° C., 4 wk
  % of Initial Concentration (0.19847 mg/mL) in pH 5.0: 102.09%
[6]; pH 5.0, 40° C., 8 wk
  % of Initial Concentration (0.19847 mg/mL) in pH 5.0: 104.88%
[6]; pH 5.0, 40° C., 12 wk
  % of Initial Concentration (0.19847 mg/mL) in pH 5.0: 106.74%
[6]; ~pH 8, 30° C., 0 wk
  % of Initial Concentration (0.19847 mg/mL) in pH 5.0: 97.78%
[6]; ~pH 8, 30° C., 1 wk
  % of Initial Concentration (0.19847 mg/mL) in pH 5.0: 69.33%
[6]; ~pH 8, 30° C., 2 wk
  % of Initial Concentration (0.19847 mg/mL) in pH 5.0: 50.77%
[6]; ~pH 8, 30° C., 4 wk
  % of Initial Concentration (0.19847 mg/mL) in pH 5.0: 27.72%
[6]; ~pH 8, 30° C., 8 wk
  % of Initial Concentration (0.19847 mg/mL) in pH 5.0: 6.96%
[6]; ~pH 8, 30° C., 12 wk
  % of Initial Concentration (0.19847 mg/mL) in pH 5.0: 1.24%
[6]; ~pH 8, 40° C., 0 wk
  % of Initial Concentration (0.19847 mg/mL) in pH 5.0: 97.78%
[6]; ~pH 8, 40° C., 1 wk
  % of Initial Concentration (0.19847 mg/mL) in pH 5.0: 30.18%
[6]; ~pH 8, 40° C., 2 wk
  % of Initial Concentration (0.19847 mg/mL) in pH 5.0: 8.85%
[6]; ~pH 8, 40° C., 4 wk
  % of Initial Concentration (0.19847 mg/mL) in pH 5.0: 0.52%
[6]; ~pH 8, 40° C., 8 wk
  % of Initial Concentration (0.19847 mg/mL) in pH 5.0: 0%
[6]; ~pH 8, 40° C., 12 wk
  % of Initial Concentration (0.19847 mg/mL) in pH 5.0: 0%
